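48-hour exposure; five concentrations; linearly interpolated endpoints. At the GI50, growth is halved.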 The source made the active and inactive calls. Cut-off read from the data, not from the text of the source: active = GI50 up to about 1.1 µM and inactive = higher. A value given as a limit tells only on which side of the number the result lay.

Among the test systems are OVCAR-5; SK-MEL-2; IGROV-1; MCF7; RPMI-8226; NCI-H460; UO-31; LOX IMVI; SK-MEL-5; NCI/ADR-RES; K562; MDA-MB-231; A498; A549; HCT-15; SW-620; PC-3; SF-268.
Holding throughout (assay): inhibition of tumour cell growth, NCI panel, 48 h

`O=C1C(NCCc2cc(Cl)c(O)c(Cl)c2)=CC(=O)c2[nH]cnc21`: the GI50 with OVCAR-5 was 88.7 µM (inactive); in the assay with SK-MEL-2 it was 19.2 µM (inactive); in the assay with IGROV-1, 18.5 µM (inactive); in the assay with MCF7 it was 26.9 µM (inactive); in the assay on RPMI-8226, 46.7 µM (inactive); in the assay with NCI-H460 it was 26.5 µM (inactive). Further, the GI50 with UO-31 is > 100 µM (inactive); in the assay on LOX IMVI, 35.2 µM (inactive); with SK-MEL-5 it was 17.3 µM (inactive); in the assay with NCI/ADR-RES, > 100 µM (inactive); in the assay on K562, 26 µM (inactive); in the assay with MDA-MB-231 it was 31 µM (inactive). For the same compound, the GI50 is 75.7 µM (inactive) in the assay on A498; 33.9 µM (inactive) with A549; 39.1 µM in the assay with HCT-15; 47.8 µM (inactive) in the assay with SW-620; 45.9 µM (inactive) with PC-3.
For the compound `CC(=O)/C=C(/C=N/O)c1ccccc1`, the GI50 in the assay on OVCAR-5 was > 100 µM (inactive); in the assay on SK-MEL-2 it was 56.5 µM (inactive); in the assay on IGROV-1 it was > 100 µM (inactive); in the assay with MCF7, > 100 µM (inactive); in the assay with RPMI-8226, > 100 µM (inactive); in the assay with NCI-H460, > 100 µM (inactive). Also, the GI50 in the assay on UO-31, in the assay on LOX IMVI, in the assay on SK-MEL-5, with NCI/ADR-RES, in the assay with K562 and with MDA-MB-231 was > 100 µM (inactive) throughout. The GI50 with SF-268 was > 100 µM (inactive); in the assay on A549, > 100 µM (inactive); in the assay with HCT-15 it was 64.3 µM; in the assay with SW-620 it was > 100 µM (inactive); in the assay with PC-3, > 100 µM (inactive).
As to `Cc1ccc(S(=O)(=O)c2ccsc2NC(=O)C(F)(F)F)cc1`, the GI50 in the assay with OVCAR-5 is 50.1 µM (inactive); in the assay with SK-MEL-2, 26.3 µM (inactive); in the assay on IGROV-1, 62.8 µM (inactive); in the assay with MCF7 it was 44.8 µM (inactive); with RPMI-8226 it was 8.02 µM (inactive); with NCI-H460, 27.3 µM (inactive). Moreover, the GI50 in the assay on UO-31 is 28.9 µM (inactive); in the assay with LOX IMVI, 28.2 µM (inactive); in the assay with SK-MEL-5, 20.2 µM (inactive); in the assay on NCI/ADR-RES, 31.7 µM (inactive); with MDA-MB-231 it was 24.5 µM (inactive); in the assay with A498, 53 µM (inactive). The GI50 with SF-268 was 28.3 µM (inactive); with A549, 34 µM (inactive); in the assay on HCT-15, 34.9 µM; in the assay on SW-620, 57.3 µM (inactive); in the assay with PC-3 it was 37.6 µM (inactive).
For the compound `CCCCCCCC(CC(=O)O)OC(=O)CC(CCCCCCC)OC1OC(C)C(O)C(O)C1OC1OC(C)C(O)C(O)C1O` (configuration not stated), the GI50 was > 100 µM (inactive) in the assay with OVCAR-5; > 100 µM (inactive) in the assay with SK-MEL-2; 62.2 µM (inactive) with IGROV-1; > 100 µM (inactive) in the assay on MCF7; > 100 µM (inactive) with RPMI-8226; > 100 µM (inactive) with NCI-H460. Besides, the GI50 was > 100 µM (inactive) in the assay on UO-31; > 100 µM (inactive) in the assay on LOX IMVI; > 100 µM (inactive) in the assay with SK-MEL-5; > 100 µM (inactive) in the assay on NCI/ADR-RES; 72.1 µM (inactive) with K562; > 100 µM (inactive) in the assay with MDA-MB-231. Moreover, the GI50 in the assay with A498 was > 100 µM (inactive); with SF-268, > 100 µM (inactive); with A549 it was > 100 µM (inactive); in the assay with HCT-15, over 100 µM; in the assay with SW-620, > 100 µM (inactive); with PC-3, > 100 µM (inactive).
`O=C1N(CN2CCOCC2)CN(CN2CCOCC2)C(=O)N1Cc1ccc(CN2C(=O)N(CN3CCOCC3)CN(CN3CCOCC3)C2=O)cc1`: the GI50 in the assay with OVCAR-5 was > 100 µM (inactive); in the assay with SK-MEL-2, 20.6 µM (inactive); with IGROV-1, > 100 µM (inactive); in the assay on MCF7 it was 38.9 µM (inactive); in the assay on RPMI-8226, 22.7 µM (inactive); with NCI-H460 it was 36.9 µM (inactive). The GI50 in the assay with UO-31 was 44.4 µM (inactive); with LOX IMVI it was 23.9 µM (inactive); in the assay with SK-MEL-5, > 100 µM (inactive); with NCI/ADR-RES, 49.9 µM (inactive); in the assay on MDA-MB-231 it was 57.9 µM (inactive); in the assay on A498, > 100 µM (inactive). In addition, the GI50 in the assay with SF-268 is 28.4 µM (inactive); with A549, 40.2 µM (inactive); in the assay with HCT-15 it was 31.2 µM; in the assay on SW-620, 43 µM (inactive); in the assay with PC-3 it was 45.6 µM (inactive).
As for `CCOC(OCC)[C@H](N)[C@@H](O)[C@@H](O)[C@H]1COC(C)(C)O1`, the GI50 in the assay with OVCAR-5, in the assay on SK-MEL-2, in the assay on IGROV-1, with MCF7, with RPMI-8226 and with UO-31 was > 100 µM (inactive) each time. The GI50 in the assay with LOX IMVI, in the assay on SK-MEL-5, in the assay with NCI/ADR-RES, in the assay with K562, in the assay with MDA-MB-231 and in the assay on A498 was > 100 µM (inactive) in each case. For the same compound, the GI50 in the assay with SF-268 was > 100 µM (inactive); in the assay with A549 it was > 100 µM (inactive); in the assay with HCT-15, over 100 µM; with SW-620 it was > 100 µM (inactive); in the assay on PC-3 it was > 100 µM (inactive).
In the case of `O=C(O)Cn1ccc(=O)c2cc([N+](=O)[O-])ccc21`, the GI50 in the assay on OVCAR-5, in the assay on SK-MEL-2, in the assay with IGROV-1, in the assay on MCF7, with NCI-H460 and in the assay with UO-31 was > 100 µM (inactive) in each case. Also, the GI50 was > 100 µM (inactive) with SK-MEL-5; > 100 µM (inactive) with NCI/ADR-RES; > 100 µM (inactive) in the assay on K562; 19.4 µM (inactive) with MDA-MB-231; > 100 µM (inactive) in the assay with A498; > 100 µM (inactive) with SF-268. The GI50 was > 100 µM (inactive) in the assay on A549, over 100 µM in the assay on HCT-15, > 100 µM (inactive) in the assay with SW-620 and > 100 µM (inactive) in the assay with PC-3.
Turning to `Nc1nc(Cl)cc(Nc2ccc3c(c2)CCC3)n1`, the GI50 with OVCAR-5 is > 100 µM (inactive); with SK-MEL-2, > 100 µM (inactive); in the assay on IGROV-1 it was 41.5 µM (inactive); with MCF7, > 100 µM (inactive); with RPMI-8226, 19.7 µM (inactive); in the assay on NCI-H460 it was 55.8 µM (inactive). For the same compound, the GI50 with UO-31 was > 100 µM (inactive); with LOX IMVI it was 56.5 µM (inactive); in the assay on SK-MEL-5, 91.4 µM (inactive); in the assay on NCI/ADR-RES, 28.6 µM (inactive); with K562, 32.7 µM (inactive); in the assay with MDA-MB-231, 52 µM (inactive). Moreover, the GI50 in the assay on A498 was > 100 µM (inactive); in the assay with SF-268, > 100 µM (inactive); in the assay on A549, > 100 µM (inactive); with HCT-15 it was 35.9 µM; in the assay on SW-620 it was 85.1 µM (inactive); in the assay on PC-3 it was 61.2 µM (inactive).

These data come from ChEMBL document CHEMBL1201862, “PubChem BioAssay data set” (2004).
